According to article PMC4130425, “Therapeutic drug monitoring of voriconazole: a case report of multiple drug interactions in a patient with an increased CYP2C19 activity” (AIDS Research and Therapy, 2014):
Read-outs that look alike come from different tables or passages of the source.

Key:
[1] = human, in vivo
Description: The patient was genotyped for CYP2C19.
Time course of (A) voriconazole i. v. dosage administration, (B) comedication with esomeprazole or ranitidine and (C) associated antiretroviral therapy. Voriconazole plasma trough concentrations. qd: once a day; b.i.d.: Twice a day.
Ranitidine was replaced by esomeprazole 40 mg IV bid.

[2] = parameters: method as in PMID 22751544; settings: target trough range; cited from earlier work
CYP2C19 = target: T1, CYP2C19 (Homo sapiens, UniProt P33261); assay: CYP2C19 phenotyping with 2 mg omeprazole (omeprazole metabolic ratio); type: in vivo; settings: while on CYP2C19 inhibitor esomeprazole, cut-off = 5, showed decreased CYP2C19 activity
T1 construct: endogenous in cells; host or cells: patient in vivo (endogenous enzyme)
T1 sequence (P33261 whole entry): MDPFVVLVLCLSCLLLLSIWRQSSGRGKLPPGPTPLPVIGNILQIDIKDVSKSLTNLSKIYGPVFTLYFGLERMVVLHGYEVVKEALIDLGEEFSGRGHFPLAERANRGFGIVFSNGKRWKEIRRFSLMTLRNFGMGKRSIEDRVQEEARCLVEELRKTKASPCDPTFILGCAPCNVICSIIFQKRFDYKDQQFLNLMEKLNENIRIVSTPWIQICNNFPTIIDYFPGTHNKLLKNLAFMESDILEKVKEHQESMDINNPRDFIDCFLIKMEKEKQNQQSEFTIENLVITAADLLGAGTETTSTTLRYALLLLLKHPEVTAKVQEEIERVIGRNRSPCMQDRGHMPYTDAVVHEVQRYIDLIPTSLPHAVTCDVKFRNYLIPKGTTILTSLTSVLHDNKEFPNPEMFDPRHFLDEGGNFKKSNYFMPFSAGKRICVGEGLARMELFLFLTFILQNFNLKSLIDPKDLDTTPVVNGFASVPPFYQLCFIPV

| omeprazole metabolic ratio (CYP2C19) | Structure (SMILES) | Voriconazole first trough concentration (C0) ([1]; female) | Voriconazole C0 versus therapeutic range [1] | Voriconazole C0 versus therapeutic range ([1]; 2.5 mg/kg) | Voriconazole C0 therapeutic range [2] |
| --- | --- | --- | --- | --- | --- |
| – | C[C@@H](c1ncncc1F)[C@](O)(Cn1cncn1)c1ccc(F)cc1F [Voriconazole] | < 1000 ng/mL | below the therapeutic range | within the therapeutic range | 1000 to 5000 ng/mL |
| 10.5 | COc1ccc2[nH]c([S+]([O-])Cc3ncc(C)c(OC)c3C)nc2c1 (centres unmarked) [omeprazole] | – | – | – | – |
